System: Caco-2 cells
Assay: Uptake by Caco-2 cell monolayer (fluorescence microscopy of DOX)
Format: cell-based
Conditions: Caco-2 monolayer, 17.2 μm, 10 min incubation
Protocol: To investigate the cellular uptake of the released DOX from CN-DOX-IO by the small intestine in vitro, the monolayer of Caco-2 cells was incubated with CN-DOX-IO at a dosage of 17.2 μm for different lengths of time (10, 30 and 60 min). For comparison, cells incubated with DOX-IO and DOX were examined as controls. The intracellular accumulation of DOX was examined by the fluorescent microscope utilizing the fluorescence of DOX.

Compound: COc1cccc2c1C(=O)c1c(O)c3c(c(O)c1C2=O)C[C@@](O)(C(=O)CO)C[C@@H]3O[C@H]1C[C@H](N)[C@H](O)[C@H](C)O1 [free DOX, doxorubicin]
- intracellular localisation of DOX fluorescence signal: observed in the nucleus
